A short description of data set [1]: In vitro cytotoxicity assay (MTT cell viability) in HepG2 cells. To be noted: human. The class given is cell-based, human. In outline:
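CC50 values reflect loss of HepG2 viability after a 7-day exposure at 37 °C, 5% CO2. After 3-4 h with MTT, solubilized formazan was quantified at 492 nm relative to vehicle wells.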

Data set [2] relates to HBV replication in HepAD38 cells. The data set can be described thus: Anti-HBV replication assay in HepAD38 cells (QPCR of extracellular HBV DNA). The class given is cell-based, HBV (genotype D, serotype ayw). The settings on record: Hepatitis B virus, 168 h, 7 days incubation, extracellular HBV DNA by QPCR, read-out: Anti-HBV EC50. The gist of the method: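 Read-out is QPCR of HBV DNA released into culture supernatant, converted to percent of vehicle control and fitted to give EC50. Cells were HepAD38 induced by tetracycline removal and dosed […] for 7 days.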

In the case of `Cc1cc(NC(=O)c2c(C)c(C(=O)C(=O)NC3CCOCC3)n(C)c2C)ccc1F` [Example 247, N-(4-fluoro-3-methylphenyl)-1,2,4-trimethyl-5-(2-oxo-2-((tetrahydro-2H-pyran-4-yl)amino)acetyl)-1H-pyrrole-3-carboxamide], in data set [1], the CC50 – broadly, the concentration at which the toxic effect on the cells reaches its halfway point – at 7 days is 5000 to 30000 nM. In data set [2], the EC50 (in general, the midpoint of the concentration-response curve) was < 50 nM.
On the same counts, the results for `Cc1cc(NC(=O)c2c(C)c(C(=O)C(=O)N[C@@H]3CC[C@H](O)[C@H]3O)n(C)c2C)ccc1F` [Example 151, 5-(2-(((1R,2S,3S)-2,3-dihydroxycyclopentyl)amino)-2-oxoacetyl)-N-(4-fluoro-3-methylphenyl)-1,2,4-trimethyl-1H-pyrrole-3-carboxamide] are > 30000 nM and < 50 nM.
Consider `Cc1c(C(=O)Nc2ccnc(F)c2)c(C)n(C)c1C(=O)C(=O)NC12CC3CC(CC1C3)C2` [Example 90, N-(2-fluoropyridin-4-yl)-5-(2-(((2R,3as,5S,6as)-hexahydro-2,5-methanopentalen-3a(1H)-yl)amino)-2-oxoacetyl)-1,2,4-trimethyl-1H-pyrrole-3-carboxamide], for which the CC50 at 7 days in data set [1] was 5000 to 30000 nM. For the same molecule, the EC50 in data set [2] is < 50 nM.
Take `Cc1c(C(=O)Nc2ncc(C(F)(F)F)s2)c2n(c1C(=O)C(=O)NC1(CO)CCC1)CCCC2` [Example 749, 3-(2-((1-(hydroxymethyl)cyclobutyl)amino)-2-oxoacetyl)-2-methyl-N-(5-(trifluoromethyl)thiazol-2-yl)-5,6,7,8-tetrahydroindolizine-1-carboxamide]: in data set [1], the CC50 at 7 days was > 30000 nM. Also, the 50% effective concentration (EC50) in data set [2] is 50 to 499 nM.
As for `Cc1cc(NC(=O)c2c(C)c(C(=O)C(=O)NCCN3CCSCC3)n(C)c2C)ccc1F` [Example 328, N-(4-fluoro-3-methylphenyl)-1,2,4-trimethyl-5-(2-oxo-2-((2-thiomorpholinoethyl)amino)acetyl)-1H-pyrrole-3-carboxamide], in data set [1], the CC50 at 7 days is > 30000 nM. In addition, the EC50 in data set [2] was in the range of 50 to 499 nM.
For `Cc1cc(NC(=O)c2c(C)c(C(=O)C(=O)N[C@H]3CC[C@@H](O)CC3)n(C)c2C)cnc1F` [Example 174, N-(6-fluoro-5-methylpyridin-3-yl)-5-(2-(((1s,4s)-4-hydroxycyclohexyl)amino)-2-oxoacetyl)-1,2,4-trimethyl-1H-pyrrole-3-carboxamide], the CC50 at 7 days in data set [1] is > 30000 nM. Also, the EC50 in data set [2] is 50 to 499 nM.
The like results for `Cc1cc(NC(=O)c2c(C)c(C(=O)C(=O)N[C@@H]3CCN(S(C)(=O)=O)C3)n(C)c2C)ccc1F` [Example 665, (R)-N-(4-fluoro-3-methylphenyl)-1,2,4-trimethyl-5-(2-((1-(methylsulfonyl)pyrrolidin-3-yl)amino)-2-oxoacetyl)-1H-pyrrole-3-carboxamide] were, in that order, 5000 to 30000 nM and < 50 nM.
As for `Cc1c(C(=O)Nc2ccc(F)c(F)c2)c2n(c1C(=O)C(=O)Nc1ccc(B(O)O)cc1)CCCC2` [Example 738, (4-(2-(1-((3,4-difluorophenyl)carbamoyl)-2-methyl-5,6,7,8-tetrahdyroindolizin-3-yl)-2-oxoacetamido)phenyl)boronic acid], the CC50 at 7 days in data set [1] is > 30000 nM. For the same molecule, the EC50 in data set [2] was in the range of 50 to 499 nM.
As for `Cc1cc(NC(=O)c2c(C)c(C(=O)C(=O)N[C@@H](CO)C(C)(C)C)n(C)c2C)ccc1F` [Example 78, (R)—N-(4-fluoro-3-methylphenyl)-5-(2-((1-hydroxy-3,3-dimethylbutan-2-yl)amino)-2-oxoacetyl)-1,2,4-trimethyl-1H-pyrrole-3-carboxamide], the CC50 at 7 days in data set [1] was > 30000 nM. Further, the half-maximal effective concentration (EC50) in data set [2] is < 50 nM.
For the molecule `Cc1cc(NC(=O)c2c(Cl)c(C(=O)C(=O)NC(C)(C)C)n(C)c2C)cnc1F` [Example 371, 5-(2-(tert-butylamino)-2-oxoacetyl)-4-chloro-N-(6-fluoro-5-methylpyridin-3-yl)-1,2-dimethyl-1H-pyrrole-3-carboxamide], the CC50 at 7 days in data set [1] is > 30000 nM. For the same molecule, in data set [2], the EC50 lay in the range of 50 to 499 nM.
The molecule `Cc1cc(NC(=O)c2c(C)c(C(=O)C(=O)NCC3(N)CCCCC3)n(C)c2C)ccc1F` [Example 337, 5-(2-(((1-aminocyclohexyl)methyl)amino)-2-oxoacetyl)-N-(4-fluoro-3-methylphenyl)-1,2,4-trimethyl-1H-pyrrole-3-carboxamide] gave a CC50 at 7 days in data set [1] of 5000 to 30000 nM. In data set [2], the 50% effective concentration (EC50) lay in the range of 500 to 1000 nM.
Turning to `Cc1c(C(=O)Nc2ccnc(F)c2)c(C)n(C)c1C(=O)C(=O)NC12CC3CC(CC(O)(C3)C1)C2` [Example 188, N-(2-fluoropyridin-4-yl)-5-(2-(((1r,3s,5R,7S)-3-hydroxyadamantan-1-yl)amino)-2-oxoacetyl)-1,2,4-trimethyl-1H-pyrrole-3-carboxamide], in data set [1], the CC50 at 7 days was > 30000 nM. For the same molecule, in data set [2], the EC50 lay within 50 to 499 nM.
As for `Cc1noc([C@H](C)NC(=O)C(=O)c2c(C)c(C(=O)Nc3cnc(F)c(C)c3)c3n2CCCC3)n1` [Example 471, (S)-N-(6-fluoro-5-methylpyridin-3-yl)-2-methyl-3-(2-((1-(3-methyl-1,2,4-oxadiazol-5-yl)ethyl)amino)-2-oxoacetyl)-5,6,7,8-tetrahydroindolizine-1-carboxamide], in data set [1], the CC50 at 7 days is > 30000 nM. Further, the EC50 in data set [2] was in the range of 500 to 1000 nM.
Molecule `Cc1cc(NC(=O)c2c(C)c(C(=O)C(=O)NC3(CO)CC(F)(F)C3)n(C)c2Cl)ccc1F` [Example 387, 2-chloro-5-(2-((3,3-difluoro-1-(hydroxymethyl)cyclobutyl)amino)-2-oxoacetyl)-N-(4-fluoro-3-methylphenyl)-1,4-dimethyl-1H-pyrrole-3-carboxamide] gave a 50% cytotoxic concentration (CC50) at 7 days in data set [1] of 5000 to 30000 nM. In data set [2], the 50% effective concentration (EC50) is > 1000 nM.
On to `Cc1cc(NC(=O)c2c(C)c(C(=O)C(=O)NC3(C)CC[C@H](O)[C@H](O)C3)n(C)c2C)ccc1F` (stereo partly drawn) [Example 703, 5-(2-(((3R,4S)-3,4-dihydroxy-1-methylcyclohexyl)amino)-2-oxoacetyl)-N-(4-fluoro-3-methylphenyl)-1,2,4-trimethyl-1H-pyrrole-3-carboxamide], for which the CC50 at 7 days in data set [1] is > 30000 nM. Besides, the EC50 in data set [2] was < 50 nM.
As for `Cc1cc(NC(=O)c2c(C)c(C(=O)C(=O)N[C@H]3CC[C@@](O)(C(F)(F)F)CC3)n(C)c2C)cnc1F` [Example 205, N-(6-fluoro-5-methylpyridin-3-yl)-5-(2-(((1r,4r)-4-hydroxy-4-(trifluoromethyl)cyclohexyl)amino)-2-oxoacetyl)-1,2,4-trimethyl-1H-pyrrole-3-carboxamide], in data set [1], the CC50 at 7 days is > 30000 nM. For the same molecule, in data set [2], the EC50 is < 50 nM.
In data set [1], `Cc1cc(NC(=O)c2c(C)c(C(=O)C(=O)N[C@H]3CCCN(S(C)(=O)=O)C3)n(C)c2C)ccc1F` [Example 642, (S)-N-(4-fluoro-3-methylphenyl)-1,2,4-trimethyl-5-(2-((1-(methylsulfonyl)piperidin-3-yl)amino)-2-oxoacetyl)-1H-pyrrole-3-carboxamide] had a CC50 at 7 days of 5000 to 30000 nM. In addition, in data set [2], the EC50 is < 50 nM.
Consider `Cc1c(C(=O)Nc2ccc(F)c(F)c2)c(C)n(C)c1C(=O)C(=O)NC1(CO)CCCCC1` [Example 616, N-(3,4-difluorophenyl)-5-(2-((1-(hydroxymethyl)cyclohexyl)amino)-2-oxoacetyl)-1,2,4-trimethyl-1H-pyrrole-3-carboxamide], for which the CC50 at 7 days in data set [1] was > 30000 nM. Besides, the EC50 in data set [2] was < 50 nM.

For the origin of these results see patent US20190375708A1 (VenatoRx Pharmaceuticals, Inc., priority 2018, published 2019).
